Results as given in PubChem BioAssay (NCI).
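Protocol summary: plate cells (96-well), add compound at 5 concentrations, incubate 48 h, interpolate endpoints linearly. GI50 = concentration required for 50% inhibition of growth. TGI: concentration producing complete growth inhibition.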

Legend:
Assay in all cases: growth of human tumour cells (NCI), 48 h
[1] = test system: BT-549 breast
[2] = test system: SF-268 CNS
[3] = test system: NCI-H226 lung
[4] = test system: HCC-2998 colon
[5] = test system: NCI-H522 lung
[6] = test system: IGROV1 ovarian
[7] = test system: MOLT-4 leukemia
[8] = test system: SF-295 CNS
[9] = test system: A498 renal
[10] = test system: SN12C renal

Structure (SMILES) | GI50 [1] [µM] | TGI [1] [µM] | GI50 [2] [µM] | TGI [2] [µM] | GI50 [3] [µM] | TGI [3] [µM] | GI50 [4] [µM] | TGI [4] [µM] | GI50 [5] [µM] | TGI [5] [µM] | GI50 [6] [µM] | TGI [6] [µM] | GI50 [7] [µM] | TGI [7] [µM] | GI50 [8] [µM] | GI50 [9] [µM] | TGI [9] [µM] | GI50 [10] [µM] | TGI [10] [µM] | TGI [8] [µM]
COc1ccc(-c2cncn2-c2cc(OC)c(OC)c(OC)c2)cc1F | < 0.0291 | > 71.6 | 0.0548 | > 100 | 21.5 | > 100 | 0.0101 | 13.4 | < 0.01 | 1.03 | < 0.0212 | 19 | < 0.0283 | > 100 | < 0.0142 | < 0.0495 | 25 | 0.789 | > 100 | –
Cc1ccc(-c2cc(/C=N/O)on2)cc1 | 49.5 | > 100 | > 100 | > 100 | 36.2 | > 100 | – | – | 62.4 | > 100 | 63.8 | > 100 | 21.9 | > 100 | 33.9 | 41.3 | > 100 | > 100 | > 100 | > 100
CCOC(=O)C(Cc1ccc(OC)cc1)C(=O)OCC | 3.25 | 13.5 | 3.73 | 15.2 | 12.4 | 30.3 | 4.81 | 12.4 | 2.53 | 8.73 | 3.46 | 14.3 | 3.2 | 11 | 5 | 6.54 | 21.4 | 5.77 | 21.7 | 20.3
COc1ccc(-n2sc(=O)n(Cc3ccc(COC(=O)C(C)c4ccc(CC(C)C)cc4)cc3)c2=O)cc1 (configuration not stated) | 2.91 | 9.37 | 5.82 | 12.2 | 11.9 | 33.2 | 7.99 | 17.2 | 0.994 | 2.25 | 1.4 | 4.74 | 1.21 | 3.89 | 10.6 | – | – | 2.83 | 9.49 | 24.1
CON | > 100 | > 100 | > 100 | > 100 | > 100 | > 100 | > 100 | > 100 | > 100 | > 100 | > 100 | > 100 | > 100 | > 100 | > 100 | – | – | > 100 | > 100 | > 100
CC(=O)/C=C/C1=C(c2ccsc2)c2ccccc2CC1 | 29.5 | 69.3 | 19.5 | 41.1 | 18.8 | 44.4 | 18.2 | 36.2 | 15.3 | 31.3 | – | – | 17.6 | 37.1 | 19.3 | 24.7 | 69.7 | 20.9 | 47.2 | 49.7
CCOc1cc(/C=N\NC(=O)N/N=C/c2ccc(O)c(OCC)c2)ccc1O | 24.5 | > 100 | 5.69 | > 100 | > 100 | > 100 | 2.97 | > 100 | 0.281 | 1.49 | 4.71 | > 100 | 3.41 | > 76.8 | 2.25 | 5.68 | 61.3 | 7 | > 100 | > 100
CC(C)N(C[C@H]1O[C@@H](n2cnc3c(N)ncnc32)[C@H](O)[C@@H]1O)C1CC(CCc2nc3ccc(C(C)(C)C)cc3[nH]2)C1 (some centres not stated) | > 60.5 | > 100 | > 100 | > 100 | > 100 | > 100 | > 100 | > 100 | > 75.9 | > 100 | > 72.4 | > 100 | 30.9 | > 81.3 | > 70.8 | 29.6 | > 100 | > 100 | > 100 | > 100
ClC1=C(Cl)C(Cl)=C(Cl)C1=Cc1ccc(Cl)cc1 | 0.428 | 1.58 | 0.419 | 1.1 | 0.389 | 1.86 | 1.14 | 2.54 | 0.23 | 0.655 | 0.396 | 2.11 | 0.356 | 2.96 | 2.27 | 1.6 | 3.17 | 0.375 | 1.82 | 8.85
C=C1CO[C@@H]2C[C@@H]1CC/C(C)=C/CC/C(C)=C/CC[C@@]2(C)O | 24.6 | 51.5 | 20.1 | 50.5 | – | – | 18.3 | 36.4 | 21.1 | 45.2 | 3.96 | 28.8 | 1.26 | 12.4 | 19.6 | 35.8 | > 76.2 | 20 | 43.7 | 41.7
O=P1(O)c2ccccc2CS(=O)(=O)Cc2ccccc21 | – | > 100 | – | > 100 | – | > 100 | – | > 100 | – | > 100 | – | > 100 | – | > 100 | – | – | > 100 | – | > 100 | > 100
C/C(=N\Nc1cccc(Cl)n1)c1ccccn1 | 1.4 | > 71.8 | 0.673 | 15.2 | 0.978 | 6.57 | 0.75 | > 100 | 0.508 | > 40.3 | 0.533 | > 59.1 | 0.407 | > 100 | 0.827 | 1.41 | 4.87 | 0.598 | > 100 | > 32.3
O=C(Nc1ccc(S(=O)(=O)NC2CCCCCC2)cc1)C(c1ccccc1)S(=O)(=O)c1ccc(F)cc1 (configuration not stated) | 0.348 | 1.61 | 0.933 | 6.11 | 0.39 | 3.43 | 0.868 | 2.35 | 0.318 | 2.94 | 0.237 | 2.89 | 0.432 | > 100 | 0.349 | 0.87 | 2.08 | 0.371 | 1.81 | 2.92
CC(=O)N[C@@H](Cc1ccc(OP(=O)(O)O)cc1)C(=O)N[C@H]1CCC(=O)N2CCC[C@@H](C(=O)NCc3ccc(O)cc3)N2C1=O | > 25 | > 25 | > 25 | > 25 | > 25 | > 25 | > 25 | > 25 | > 25 | > 25 | > 25 | > 25 | > 25 | > 25 | > 25 | > 25 | > 25 | > 25 | > 25 | > 25
Cc1c(N2C(=O)/C(=C\c3ccc(N(C)C)cc3)N=C2c2ccccc2)c(=O)n(-c2ccccc2)n1C | 63.7 | > 100 | > 76.9 | > 100 | 72.2 | > 100 | > 100 | > 100 | 67.8 | > 100 | 24.1 | > 100 | 7.85 | > 100 | 92 | > 64.3 | > 100 | > 100 | > 100 | > 100
O=C1c2cccc3cc([N+](=O)[O-])cc(c23)C(=O)N1O | – | > 100 | – | > 100 | – | > 100 | – | 65.2 | – | > 100 | – | > 100 | – | > 100 | – | – | – | – | > 100 | > 100
Cc1cccnc1CNC1CC(NCc2ncccc2C)CC(NCc2ncccc2C)C1 (configuration not stated) | 2.95 | 7.82 | 1.99 | 4.05 | 1.65 | 3.17 | – | – | 2.69 | 12.2 | 3.89 | 40.3 | 2.72 | 5.38 | 3.12 | 1.78 | 3.3 | 1.61 | 3.11 | 8.6
NC(=O)NC(=O)C1CCCCC1C(=O)O (configuration not stated) | – | > 100 | – | > 100 | – | > 100 | – | – | – | > 100 | – | > 100 | – | – | – | – | > 100 | – | > 100 | > 100
COc1cccc(Nc2nccc(Nc3ccc4[nH]ncc4c3)n2)c1 | 1.67 | 3.71 | 1.86 | 5.89 | 1.82 | 4.46 | 1.79 | 3.36 | 1.48 | 2.86 | – | – | 0.525 | 2.83 | 1.66 | 1.65 | 5.3 | – | – | 3.17
Cc1sc(/N=C2/NC(=O)CS2)nc1-c1nc(/N=C2/NC(=O)CS2)sc1C | > 50 | > 50 | 36.4 | > 50 | > 50 | > 50 | – | – | > 50 | > 50 | > 50 | > 50 | 19.9 | > 50 | > 50 | 47.1 | > 50 | > 50 | > 50 | > 50
C=C(C)[C@@H]1CC[C@]2(C)[C@H](C=CC3=C4C[C@@](C)(CO)CC[C@]4(C)CC[C@]32C)[C@@]1(C)CCCN | 1.63 | 3.07 | 1.61 | 3.25 | – | – | 0.793 | 2.14 | – | – | 1.5 | 2.95 | – | – | 1.78 | 1.54 | 2.9 | 1.64 | 3.15 | 3.21
